Drawing on patent US12077503B2, “Substituted cyclic amides and their use as herbicides” (FMC CORPORATION, priority 2015, dated 2024), this text covers plant injury and pest or weed control for 4 molecules.

Common to all, as to type: in vivo
Experiment [1] relates to wheat (Triticum aestivum). Put plainly: Test A postemergence. To be noted: Triticum aestivum, post-emergence, 240 h, 125 g ai/ha, postemergence, visual injury rating after approximately 10 d; read-out: Wheat plant response rating (0 to 100 scale, 0 no effect, 100 complete control). A digest of the protocol: (§1)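 In a loam soil and sand blend, planted seeds got a preemergence directed soil spray, and young plants at the one- to two-leaf stage, 2–10 cm high, got a postemergence application; ~10 d greenhouse hold; injury rated visually, 0 = none, 100 = complete control.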

Experiment [2] concerns pigweed (Amaranthus retroflexus). In words: Test A postemergence. To be noted: Amaranthus retroflexus, post-emergence, 240 h, 125 g ai/ha, postemergence, visual injury rating after approximately 10 d; read-out: Pigweed plant response rating (0 to 100 scale, 0 no effect, 100 complete control). A digest of the protocol:
as §1

Experiment [3] relates to Galium (catchweed bedstraw, Galium aparine). In words: Test A postemergence. The conditions noted are these: Galium, post-emergence, 240 h, 125 g ai/ha, postemergence, visual injury rating after approximately 10 d; read-out: Galium plant response rating (0 to 100 scale, 0 no effect, 100 complete control). A digest of the protocol:
as §1

Another experiment has as its system corn (Zea mays). In words: Test A postemergence. The conditions noted are these: Zea mays, post-emergence, 240 h, 125 g ai/ha, postemergence, visual injury rating after approximately 10 d; read-out: Corn plant response rating (0 to 100 scale, 0 no effect, 100 complete control). In outline: as §1
Experiment [4] relates to Kochia (Kochia scoparia). In words: Test A postemergence. To be noted: Bassia scoparia, post-emergence, 240 h, 125 g ai/ha, postemergence, visual injury rating after approximately 10 d; read-out: Kochia plant response rating (0 to 100 scale, 0 no effect, 100 complete control). A digest of the protocol: as §1
Experiment [5] deals with blackgrass (Alopecurus myosuroides). In words: Test A postemergence. To be noted: Alopecurus myosuroides, post-emergence, 240 h, 125 g ai/ha, postemergence, visual injury rating after approximately 10 d; read-out: Blackgrass plant response rating (0 to 100 scale, 0 no effect, 100 complete control). A digest of the protocol:
as §1

Experiment [6] deals with ryegrass, Italian (Italian ryegrass, Lolium multiflorum). Put plainly: Test A postemergence. To be noted: Lolium multiflorum, post-emergence, 240 h, 125 g ai/ha, postemergence, visual injury rating after approximately 10 d; read-out: Ryegrass, Italian plant response rating (0 to 100 scale, 0 no effect, 100 complete control). In outline:
as §1

In experiment [7] the test system is ragweed (common ragweed, Ambrosia elatior). In words: Test A postemergence. To be noted: Ambrosia artemisiifolia, post-emergence, 240 h, 125 g ai/ha, postemergence, visual injury rating after approximately 10 d; read-out: Ragweed plant response rating (0 to 100 scale, 0 no effect, 100 complete control). A digest of the protocol:
as §1

In experiment [8] the test system is giant foxtail (Setaria faberii). Put plainly: Test A postemergence. To be noted: Setaria faberi, post-emergence, 240 h, 125 g ai/ha, postemergence, visual injury rating after approximately 10 d; read-out: Foxtail, Giant plant response rating (0 to 100 scale, 0 no effect, 100 complete control). A digest of the protocol: as §1
Experiment [9] concerns barnyardgrass (Echinochloa crus-galli). Put plainly: Test A postemergence. The conditions noted are these: Echinochloa crus-galli, post-emergence, 240 h, 125 g ai/ha, postemergence, visual injury rating after approximately 10 d; read-out: Barnyardgrass plant response rating (0 to 100 scale, 0 no effect, 100 complete control). A digest of the protocol: as §1
Experiment [10] relates to pigweed (Amaranthus retroflexus). In words: Test A preemergence. To be noted: Amaranthus retroflexus, pre-emergence, 240 h; for pest or weed control at 125 g/ha: 125 g ai/ha, preemergence, 0 to 100 scale where 0 is no effect and 100 is complete control, read-out: Pigweed plant response rating; for pest or weed control at 500 g/ha: 500 g ai/ha, Preemergence, visual injury vs untreated controls after approximately 10 d, read-out: Pigweed plant response rating (0 to 100 scale where 0 is no effect and 100 is complete control).

For experiment [11], the system named is Kochia (Kochia scoparia). In words: Test A preemergence. The conditions noted are these: Bassia scoparia, pre-emergence, 240 h; for pest or weed control at 125 g/ha: 125 g ai/ha, preemergence, 0 to 100 scale where 0 is no effect and 100 is complete control, read-out: Kochia plant response rating; for pest or weed control at 500 g/ha: 500 g ai/ha, Preemergence, visual injury vs untreated controls after approximately 10 d, read-out: Kochia plant response rating (0 to 100 scale where 0 is no effect and 100 is complete control). A digest of the protocol: as §1

The test system of experiment [12] is ryegrass, Italian (Italian ryegrass, Lolium multiflorum). Put plainly: Test A preemergence. To be noted: Lolium multiflorum, pre-emergence, 240 h; for pest or weed control at 125 g/ha: 125 g ai/ha, preemergence, 0 to 100 scale where 0 is no effect and 100 is complete control, read-out: Ryegrass, Italian plant response rating; for pest or weed control at 500 g/ha: 500 g ai/ha, Preemergence, visual injury vs untreated controls after approximately 10 d, read-out: Ryegrass, Italian plant response rating (0 to 100 scale where 0 is no effect and 100 is complete control). A digest of the protocol:
as §1

The subject of experiment [13] is ragweed (common ragweed, Ambrosia elatior). Put plainly: Test A preemergence. The conditions noted are these: Ambrosia artemisiifolia, pre-emergence, 240 h; for pest or weed control at 125 g/ha: 125 g ai/ha, preemergence, 0 to 100 scale where 0 is no effect and 100 is complete control, read-out: Ragweed plant response rating; for pest or weed control at 500 g/ha: 500 g ai/ha, Preemergence, visual injury vs untreated controls after approximately 10 d, read-out: Ragweed plant response rating (0 to 100 scale where 0 is no effect and 100 is complete control). In outline:
as §1

In experiment [14] the test system is giant foxtail (Setaria faberii). Put plainly: Test A preemergence. The conditions noted are these: Setaria faberi, pre-emergence, 240 h; for pest or weed control at 125 g/ha: 125 g ai/ha, preemergence, 0 to 100 scale where 0 is no effect and 100 is complete control, read-out: Foxtail, Giant plant response rating; for pest or weed control at 500 g/ha: 500 g ai/ha, Preemergence, visual injury vs untreated controls after approximately 10 d, read-out: Foxtail, Giant plant response rating (0 to 100 scale where 0 is no effect and 100 is complete control). A digest of the protocol: as §1

The test system of experiment [15] is barnyardgrass (Echinochloa crus-galli). Put plainly: Test A preemergence. To be noted: Echinochloa crus-galli, pre-emergence, 240 h; for pest or weed control at 125 g/ha: 125 g ai/ha, preemergence, 0 to 100 scale where 0 is no effect and 100 is complete control, read-out: Barnyardgrass plant response rating; for pest or weed control at 500 g/ha: 500 g ai/ha, Preemergence, visual injury vs untreated controls after approximately 10 d, read-out: Barnyardgrass plant response rating (0 to 100 scale where 0 is no effect and 100 is complete control). A digest of the protocol:
as §1

With `Cc1cc(F)ccc1NC(=O)[C@H]1C(=O)NC[C@@H]1c1cccc(C(F)(F)F)c1` [Compound 828], the figures for the plant injury at 125 g/ha (in experiment [1]; with corn (Zea mays)) were 20% and 40%, respectively. Besides, the pest or weed control at 125 g/ha is 0% in experiment [2]; 30% in experiment [3]; 0% with Kochia (Kochia scoparia) [4]; 50% in experiment [5]; 20% in [6]; 0% in [7]. The pest or weed control at 125 g/ha in experiment [8] came out at 90%; in [9] it was 70%; in [10] it was 0%; in the experiment on Kochia (Kochia scoparia) [11] it was 40%; in [12] it was 50%; in experiment [13] it was 0%. Further, the pest or weed control at 125 g/ha in [14] worked out at 90%; in experiment [15], 70%. For the same molecule, the pest or weed control at 500 g/ha in experiment [10] was 0%; in the experiment with Kochia (Kochia scoparia) [11], 40%; in experiment [12], 70%; in experiment [13] it was 0%; in [14] it was 100%; in experiment [15] it was 90%.
In the case of `Cc1c(F)ccc([C@H]2CN(C)C(=O)[C@@H]2C(=O)Nc2ccccc2F)c1F` [Compound 833], the plant injury at 125 g/ha in experiment [1] came to 0%; with corn (Zea mays), 20%. Moreover, the pest or weed control at 125 g/ha in experiment [2] came out at 0%; in experiment [3], 40%; with Kochia (Kochia scoparia) [4], 30%; in experiment [5], 40%; in experiment [6], 60%; in experiment [7], 0%. In addition, the pest or weed control at 125 g/ha was found to be 90% in experiment [8]; 90% in [9]; 0% in experiment [10]; 70% in the experiment on Kochia (Kochia scoparia) [11]; 70% in experiment [12]; 0% in [13]. Further, the pest or weed control at 125 g/ha in experiment [14] and in [15] was 90% each time. In addition, the pest or weed control at 500 g/ha stood at 0% in experiment [10]; 80% with Kochia (Kochia scoparia) [11]; 80% in experiment [12]; 20% in experiment [13]; 100% in [14]; 90% in experiment [15].
On to `Cc1c(F)ccc([C@H]2CN(C)C(=O)[C@@H]2C(=O)Nc2ccc(F)c(F)c2F)c1F` [Compound 836], for which the values for the plant injury at 125 g/ha (in experiment [1]; in the experiment on corn (Zea mays)) were 40% and 70%, respectively. Besides, the pest or weed control at 125 g/ha is 30% in [2]; 50% in experiment [3]; 50% in the experiment on Kochia (Kochia scoparia) [4]; 70% in experiment [5]; 60% in experiment [6]; 0% in [7]. Moreover, the pest or weed control at 125 g/ha stood at 90% in [8]; 100% in experiment [9]; 30% in [10]; 90% in the experiment on Kochia (Kochia scoparia) [11]; 90% in experiment [12]; 0% in experiment [13]. In addition, the pest or weed control at 125 g/ha in experiment [14] and in [15] was 90% throughout. Moreover, the pest or weed control at 500 g/ha in [10] stood at 60%; in the experiment on Kochia (Kochia scoparia) [11] it was 90%; in experiment [12], 80%; in [13], 0%; in experiment [14], 90%; in experiment [15] it was 90%.
With `Cc1c(F)ccc([C@H]2CN(C)C(=O)[C@@H]2C(=O)Nc2ccccc2C(F)(F)F)c1F` [Compound 841], the plant injury at 125 g/ha (in [1]; in the experiment with corn (Zea mays)) was 0% in each case. Moreover, the pest or weed control at 125 g/ha came out at 0% in experiment [2]; 40% in experiment [3]; 30% in the experiment on Kochia (Kochia scoparia) [4]; 30% in experiment [5]; 20% in [6]; 0% in experiment [7]. Moreover, the pest or weed control at 125 g/ha amounted to 90% in [8]; 80% in experiment [9]; 0% in experiment [10]; 40% with Kochia (Kochia scoparia) [11]; 0% in experiment [12]; 0% in experiment [13]. For the same molecule, the pest or weed control at 125 g/ha in experiment [14] and in experiment [15] was 90% throughout. Further, the pest or weed control at 500 g/ha in experiment [10] came out at 30%; in the experiment on Kochia (Kochia scoparia) [11], 60%; in experiment [12], 40%; in experiment [13] it was 0%; in [14] it was 90%; in experiment [15], 100%.
